Read-outs that look alike come from different tables or passages of the source.
Tests used:
PHD2_181-402 [1] = target: T1, PHD2_181-402 (Homo sapiens, UniProt Q9GZT9); experiment: PHD2_181-402 inhibition assay (bioluminescent succinate detection, Succinate-Glo); type: biochemical; settings: for IC50: read-out: True IC50; for fold less effective at inhibiting PHD2_181-402 (compared to butyrate): relative to butyrate true IC50
Experimental: PHD2_181-402 activity and inhibition assays were performed with the Succinate-Glo JmjC Demethylase/Hydroxylase Assay Kit (Promega) according to manufacturer protocol and as detailed in Alves et al. […] The enzymatic reaction was incubated at room temperature for 10 minutes, after which succinate formation was detected according to manufacturer protocol. […] Then, 20 µL of Succinate Detection Reagent II was added to the reactions and incubated for 10 min at room temperature before the luciferase-generated luminescence was recorded on a plate-reading luminometer. Succinate standard curves were used to determine the sensitivity and linear range of the bioluminescent succinate detection. […] Succinate standards were serially diluted two-fold from 15 µM to 58.6 nM and a 0 succinate blank. 10 µL of succinate standards were used for detection as described above. […] Reactions were incubated at room temperature for 10 minutes and succinate detected. […] Measured IC50s were calculated from fitting the percentage activity data to the [Inhibitor] vs. normalized response – variable slope least squares nonlinear regression in GraphPad Prism 9. True IC50s were calculated from measured IC50s with the equation derived by Wu et al.[26] describing the relationship between the measured IC50 of an inhibitor and the percentage of substrate conversion.

PHD2_181-402 [2] = target: T1, PHD2_181-402; experiment: WaterLOGSY 1D NMR binding; settings: 10 mM ligand, 25 μM PHD2_181-402
Source text: Next, we established whether butyrate binds directly to PHD2_181-402 using 1D WaterLOGSY NMR.[28] This method enables sensitive and robust detection of binding (dissociation constants as weak as μM to low mM) based on the magnetization transfer between water molecules, proteins, and ligands of interest in close proximity via dipolar proton–proton cross-relaxation (nuclear Overhauser effect, NOE). […] Binding and non-binding ligands can be distinguished in a WaterLOGSY spectrum via their opposite signs in relation to water for their corresponding peaks.
Following an established protocol, all NMR analyses were performed using PHD2_181-402 and the diamagnetic element (Zn^2+) rather than a paramagnetic element such as Fe^2+ that would result in inhibitive signal reduction or loss due to fast relaxation induced by the unpaired electron.[63]
Water-Ligand Observed via Gradient SpectroscopY (WaterLOGSY): Measurements were carried out on a 600 MHz triple-resonance Bruker cryoprobe spectrometer.[28] Selective water inversion was achieved using an iBURP shaped pulse with 15 ms length and an inversion bandwidth of 0.4 ppm. The mixing time was set to 1 s, and the water was suppressed using double Watergate. 1024 scans were acquired with an interscan delay of 2 s. The sample concentration was 25 µM of PHD2_181-402 mixed with 10 mM of the different ligands in NMR buffer (Tris 50 mM, NaCl 20 mM, ZnCl2 100 μM) at pH 6.5.

HDACs = tested on: HDACs; set-up: method as in PMID 18061431, PMID 30052654; settings: cited from earlier work
T84 cells [3] = experiment: 2-OG levels in T84 cells; type: cell-based; settings: 3 h, 10 mM butyrate or 30 μM IOX2
Experimental: (§1) T84 cells were cultured in 95% air with 5% CO2 at 37°C in standard media made of DMEM:F-12 supplemented with 10% calf serum, 1% penicillin/streptomycin, and 1% GlutaMAX™ (ThermoFisher Scientific) on 9.6 cm^2 6-well plates (ThermoFisher Scientific). Real-time oxygen sensing was done using the SensorDish Reader from Applikon Biotechnology as described previously with T84 cells plated on 0.33 cm^2 transwell inserts (Corning, 0.4 μm).[12] All MCPA treatments included a 2 h pretreatment with MCPA before treatment with butyrate.
(§2) Metabolites Extractions and HPLC-DAD: Cell and colon tissue metabolites were extracted and analyzed as previously described with minor variations.[61],[62] The metabolites were detected by absorption at wavelengths of 210, 254, and 280 nm, with their absorbance spectra and retention times verified by co-injection with authentic standards. Metabolites for HPLC-ESI MS analyses were resuspended in deionized water (pH 7.2).
HPLC-ESI MS: Analyses were performed on an Agilent Technologies 1260 Infinity II LC/MSD iQ with electrospray ionization (ESI) mass detection. Negative ion mass-to-charge ratios (m/z) were scanned from 50 to 500. The metabolite extracts were chromatographed using a Sepax Carbomix column (Pb-Np5:8%, 5 μm, non-porous, 4.6 × 300 mm) (mobile phase A: water; mobile phase B: acetonitrile; column temperature, 75°C). Chromatographic separation was performed using a combination of isocratic and gradient methods, including column washing and equilibration periods at the end (0 min: 100% A, 0.12 mL/min; 60 min: 100% A, 0.12 mL/min; 70 min: 70% A, 0.5 mL/min; 145 min: 70% A, 0.5 mL/min; 150 min: 100% A, 0.5 mL/min; 164 min, 100% A, 0.5 mL/min; 165 min, 100% A, 0.12 mL/min; 170 min, 100% A, 0.12 mL/min).

murine colon tissue [4] = experiment: Rectal gavage in antibiotic-treated SCFA-depleted mice; type: in vivo; settings: rectal 100 mM butyrate or 1.5 mM IOX2, 1 h, after antibiotics
Experimental: (§3) C57BL/6 mice were purchased from Jackson Laboratories. Animals were maintained and bred in standard housing conditions under 24 h/day, 7 days/week veterinary care available at the University of Colorado Anschutz Medical Campus (AMC) animal facility. All animal procedures were reviewed and approved by the Institutional Animal Care and Use Committee at AMC. 8 to 10-week-old male and female mice were pre-administered an antibiotic cocktail consisting of 1 mg/mL ampicillin, gentamicin, and neomycin, 0.5 mg/mL vancomycin, and 0.25 mg/mL metronidazole for 5 d ad libitum in addition to water control mice. Mice were then given 200 µL of tributyrin daily for three days using reusable feeding needles (18060–20, Fine Science Tools). On the third day, 4 h prior to sacrifice, select mice given tributyrin were rectally given 100 μL of 60 mM MCPA with plastic gavage tubes (FTP-20-38-50, Instech) inserted 1 cm into the rectum without surgical lubricant. Whole colon tissue at the site of the rectal gavage was collected for metabolite analysis, while colon whole tissue and epithelial scrapings upstream from the gavage site was collected for RNA and protein analysis. In the second butyrate reconstitution experiment, mice were rectally given 100 μL of 100 mM butyrate, 100 mM butyrate with 10 mM MCPA, 1.5 mM IOX2, or PBS control under anesthesia. Mice were then sacrificed 1 h after rectal supplementation and colon tissues collected for metabolite, mRNA, and protein analysis from the site of the rectal gavage.
(§4) TRIzol® reagent (ThermoFisher Scientific) was used to isolate total RNA from T84 cells. Mouse colon tissue samples were harvested into RNAlater™ (Invitrogen) and stored at 4°C for 48 h. Total RNA was isolated from the tissues using RNeasy Plus Mini Kit (Qiagen). cDNA was prepared using the iScript cDNA Synthesis Kit (Bio-Rad). Quantitative PCR analysis was performed using the Power SYBR™ Green master mix (Applied Biosystems) in a thermocycler. Fold change in expression of target mRNA relative to β-actin (ACTB) mRNA was calculated using the delta-delta Ct method. Primer sequences used are as follows: hBNIP3 – forward, 5′- […] −3′, reverse, 5′- […] −3′; hBNIP3L – forward, 5′- […] −3′, reverse, 5′- […] −3′; hGLUT1 – forward, 5′- […] −3′, reverse, 5′- […] −3′; hACTB – forward, 5′- […]-3′, reverse, 5′- […]-3′; mBnip3 – forward, 5′- […] −3′, reverse, 5′- […] −3′; mBnip3l – forward, 5′- […] −3′, reverse, 5′- […] −3′; mGlut1 – forward, 5′- […] −3′, reverse, 5′- […] −3′; and mActb – forward, 5′- […] −3′, reverse, 5′- […] −3′.
(§5) T84 cells were rinsed with PBS and collected and lysed in 200 µL of radioimmunoprecipitation assay (RIPA, 50 mM Tris-HCl pH 8.0, 1 mM EDTA, 1% Triton X-100, […], 0.5% sodium deoxycholate, 150 mM NaCl) buffer with protease inhibitors on ice. Mouse colon samples were harvested into 350 µL of RIPA buffer and flash frozen in liquid nitrogen. Samples were homogenized by sonication, and insoluble materials removed by centrifugation at 10,000 g for 5 min at 4°C. Protein quantity of the supernatant was determined using the Bradford reagent. Laemmli sample buffer was added to each sample. Samples (20 µg) were run and separated on 8% SDS-PAGE gels and transferred to polyvinylidene fluoride (PVDF) membranes. Membranes were blocked overnight at 4°C in Tris-buffered saline with 1% Tween-20 (TBS-T) and 5% milk. […]

T84 cells [5] = experiment: Butyrate metabolism and oxygen consumption in T84 cells; type: cell-based
Experimental: as §1, §2

rat hepatocytes = tested on: rat hepatocytes; set-up: method as in PMID 9124539; settings: cited from earlier work
murine colon tissue [6] = experiment: Tributyrin oral gavage in antibiotic-treated SCFA-depleted mice; type: in vivo
Experimental: as §3, §4, §5

[7] = set-up: method as in PMID 10321503; settings: mice, oral gavage with tributyrin, 1 h after dosing; cited from earlier work
[8] = 1 μM PHD2_181-402, 10 μM 2-OG, 10 μM Fe(II), 10 μM HIF-1α547-581 peptide, 100 μM ascorbic acid, 10-minute reaction, calculated from measured IC50 accounting for substrate conversion, error SEM

T1 sequence (Q9GZT9 181-402): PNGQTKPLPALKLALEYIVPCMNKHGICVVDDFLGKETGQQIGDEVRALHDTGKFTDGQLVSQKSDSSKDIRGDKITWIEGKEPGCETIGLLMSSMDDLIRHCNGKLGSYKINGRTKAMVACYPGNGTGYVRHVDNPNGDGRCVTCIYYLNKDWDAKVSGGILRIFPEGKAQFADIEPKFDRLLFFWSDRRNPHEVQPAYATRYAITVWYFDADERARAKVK

| IC50 (PHD2_181-402 [1]; [8]) | binding to PHD2_181-402 (WaterLOGSY signal) (PHD2_181-402 [2]) | fold less effective at inhibiting PHD2_181-402 (compared to butyrate) (PHD2_181-402 [1]) | SMILES | HDAC inhibition (HDACs) | other results |
| --- | --- | --- | --- | --- | --- |
| 77 ± 6 mM |  |  | CCC(CC)C(=O)O [2-Ethylbutyrate] |  |  |
| 50 ± 10 mM | no binding | ~ 10 fold | CC(=O)O [Acetate] | none |  |
| 1.9 ± 0.5 mM |  |  | COC(=O)CNC(=O)C(=O)OC [DMOG, dimethyloxalylglycine, reference compound] |  | change of IC50 with increasing 2-OG (PHD2_181-402 [1]; 2-OG at 1, 5, 10, 40 or 100 µM): increased significantly |
|  |  |  | O=C(O)CNC(=O)c1c(O)c2ccccc2n(Cc2ccccc2)c1=O [IOX2, reference compound] |  | 2-OG levels compared to control (T84 cells [3]): lesser extent than butyrate; mRNA expression of HIF-1α targets Bnip3, Bnip3l, Glut1 (murine colon tissue [4]; colon tissue): rescued; colon tissue 2-OG levels (murine colon tissue [4]): rescued |
|  |  |  | C=C1CC1CC(=O)O (stereo not shown) [MCPA, methylene cyclopropyl acetic acid] |  | butyrate metabolism (T84 cells [5]; 600 μM butyrate with 1 mM MCPA, 0 to 6 h): reduced butyrate metabolism; butyrate-associated oxygen consumption (T84 cells [5]; 5 mM butyrate with 1 mM MCPA, 30 min): eliminated the increase in oxygen consumption; reduction of acetyl-CoA levels (rat hepatocytes): 70–90%; colon tissue butyrate level compared to tributyrin alone (murine colon tissue [6]; 60 mM MCPA rectal gavage 4 h in mice given tributyrin): significantly increased |
| 60 ± 10 mM | no binding | ~ 10 fold | CCC(=O)O [Propionate] | lesser degrees of HDAC inhibition |  |
|  | no binding | ~ 3 fold | CCCCC(=O)O [Valerate] | lesser degrees of HDAC inhibition | IC50 (PHD2_181-402 [1]): 16 ± 3 mM |
|  |  |  | CCCC(=O)OCC(COC(=O)CCC)OC(=O)CCC [tributyrin] |  | HIF-1α protein (murine colon tissue [6]; epithelial scrapings and whole-colon tissue, tributyrin 200 µL, 3 d, with or without MCPA): rescued; colon tissue 2-OG levels (murine colon tissue [6]; tributyrin 200 µL, 3 d, with or without MCPA): recovered; colon tissue butyrate levels (murine colon tissue [6]; tributyrin 200 µL, 3 d, with or without MCPA, versus antibiotics (glycerol control)): rescued; HIF-1α target gene Bnip3l mRNA (murine colon tissue [6]; whole-colon tissue and epithelial scrapings, tributyrin 200 µL oral gavage daily for 3 d, with or without 60 mM MCPA rectal 4 h): normalized; plasma butyrate concentrations [7]: > 1 mM |

| SMILES | IC50 (PHD2_181-402 [1]; [8]) | binding to PHD2_181-402 (WaterLOGSY signal) (PHD2_181-402 [2]) | fold less effective at inhibiting PHD2_181-402 (compared to butyrate) (PHD2_181-402 [1]) | HDAC inhibition (HDACs) | other results |
| --- | --- | --- | --- | --- | --- |
| CC(O)CC(=O)O (stereo not shown) [3-Hydroxybutyrate] | 14 ± 1 mM |  |  |  |  |
| CCCCCC(=O)O [Hexanoate] |  |  | ~ 3 fold | lesser degrees of HDAC inhibition | IC50 (PHD2_181-402 [1]): 17 ± 3 mM |

Source: paper PMC8253137, “Microbiota-derived butyrate is an endogenous HIF prolyl hydroxylase inhibitor” (Gut Microbes, 2021)
